Each block holds one compound with its values, some of them ahead of it.
What was measured:
[1] = Inhibition of Escherichia coli thymidine phosphorylase expressed in Escherichia coli preincubated for 10 mins followed by thymidine substrate addition measured for 10 mins by spectrophotometric method
[2] = Non-competitive inhibition of Escherichia coli thymidine phosphorylase expressed in Escherichia coli preincubated for 10 mins followed by varying levels of thymidine substrate addition by Lineweaver-Burk plot analysis
Thymidine phosphorylase [3] = target: T1, Thymidine phosphorylase (Escherichia coli K-12, UniProt P07650); assay: Inhibition of Escherichia coli K12 thymidine phosphorylase expressed in Escherichia coli preincubated for 10 mins followed by substrate addition measured up to 30 mins by spectrophotometric method
T1 sequence (P07650 whole entry): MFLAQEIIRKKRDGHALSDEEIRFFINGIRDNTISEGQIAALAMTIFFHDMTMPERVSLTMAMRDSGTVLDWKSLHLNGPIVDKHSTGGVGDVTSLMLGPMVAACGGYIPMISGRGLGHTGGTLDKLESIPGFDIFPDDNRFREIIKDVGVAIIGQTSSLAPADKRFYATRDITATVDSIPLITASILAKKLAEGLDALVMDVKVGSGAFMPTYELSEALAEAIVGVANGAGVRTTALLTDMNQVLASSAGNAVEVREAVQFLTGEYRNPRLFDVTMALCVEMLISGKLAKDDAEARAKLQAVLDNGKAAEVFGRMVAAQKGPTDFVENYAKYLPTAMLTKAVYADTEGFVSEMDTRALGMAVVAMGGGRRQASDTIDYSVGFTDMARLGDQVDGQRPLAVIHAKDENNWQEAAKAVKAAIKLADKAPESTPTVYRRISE

[4] = target: Thymidine phosphorylase (Escherichia coli K-12) (UniProt P07650); assay: Potency index, ratio of 7-DX IC50 to compound IC50 for Escherichia coli K12 thymidine phosphorylase expressed in Escherichia coli
Thymidine phosphorylase (Escherichia coli K-12), sequence (P07650 whole entry, looked up): as the sequence (P07650 whole entry) above

Thymidine phosphorylase [5] = target: T2, Thymidine phosphorylase (Homo sapiens, UniProt P19971); assay: Inhibition of human thymidine phosphorylase using thymidine as substrate preincubated for 30 mins followed substrate addition measured up to 30 mins
T2 sequence (P19971 whole entry): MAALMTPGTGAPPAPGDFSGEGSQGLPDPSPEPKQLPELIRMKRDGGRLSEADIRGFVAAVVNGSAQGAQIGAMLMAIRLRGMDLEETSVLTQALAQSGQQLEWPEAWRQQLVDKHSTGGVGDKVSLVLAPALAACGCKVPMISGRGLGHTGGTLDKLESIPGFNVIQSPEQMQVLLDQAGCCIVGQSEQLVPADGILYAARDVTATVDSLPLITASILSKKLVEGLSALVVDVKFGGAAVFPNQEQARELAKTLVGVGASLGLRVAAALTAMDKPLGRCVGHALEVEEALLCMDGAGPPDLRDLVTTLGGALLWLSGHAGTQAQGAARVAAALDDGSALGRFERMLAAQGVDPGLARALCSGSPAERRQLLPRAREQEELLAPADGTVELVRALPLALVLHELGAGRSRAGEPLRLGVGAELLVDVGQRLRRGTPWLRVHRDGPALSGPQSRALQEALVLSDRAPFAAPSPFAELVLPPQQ

Thymidine phosphorylase [6] = target: T1, Thymidine phosphorylase; assay: Inhibition of Escherichia coli K12 thymidine phosphorylase expressed in Escherichia coli using thymidine as substrate addition measured up to 20 mins by Uv-vis spectrophotometric method

IC50 [1]: 42.9 µM
SMILES: O=c1[nH]c(-c2ccc(O)c(O)c2)nc2ccccc12
Ki [2]: 52.3 µM

IC50 (Thymidine phosphorylase [3]): 3.2 µM
Ratio IC50 [4]: 12
SMILES: Oc1cc(O)c(/C=N/Nc2cnc3ccccc3n2)cc1O

IC50 (Thymidine phosphorylase [3]): 38.2 µM
SMILES: Oc1ccc(-c2nnc(S)o2)cc1

IC50 (Thymidine phosphorylase [5]): 226 µM
SMILES: O=C(OCc1cc(O)ccc1O[C@@H]1O[C@H](CO)[C@@H](O)[C@@H](OC(=O)c2ccc(O)cc2)[C@H]1O)c1ccccc1

IC50 (Thymidine phosphorylase [6]): 111 µM
SMILES: O=c1[nH]c(SCc2ccccc2)nc2nc(-c3ccccc3)nn12
